pIC50: −log10 of the molar value.
Target: C5aR (Homo sapiens (Human), UniProt P21730)
Assay: Chemotaxis assay using U937 cells (C5aR mediated migration)
Format: cell-based
Settings: read-out: Mig IC50
Procedure, shortened: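 U937 monocytic cells, pretreated overnight with 0.5 mM cyclic AMP, placed at 100,000 cells in the upper well above 5 μm polycarbonate filters. Lower well held 0.03 nM C5a plus compound in HBSS/1% FBS; after 1.5 h at 37° C migrated cells counted directly or by CyQuant, giving IC50.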

Chain of C5aR (P21730 whole entry): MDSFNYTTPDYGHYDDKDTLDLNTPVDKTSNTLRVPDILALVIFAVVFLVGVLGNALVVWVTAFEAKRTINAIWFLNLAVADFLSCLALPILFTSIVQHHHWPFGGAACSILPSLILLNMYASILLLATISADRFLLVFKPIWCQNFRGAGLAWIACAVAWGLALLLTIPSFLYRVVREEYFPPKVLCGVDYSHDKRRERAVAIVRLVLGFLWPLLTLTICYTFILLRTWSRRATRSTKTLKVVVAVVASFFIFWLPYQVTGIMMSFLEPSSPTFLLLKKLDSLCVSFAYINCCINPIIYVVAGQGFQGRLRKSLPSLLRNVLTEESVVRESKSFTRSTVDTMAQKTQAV

| SMILES | pIC50 |
| --- | --- |
| Cc1ccc(C(F)(F)F)cc1N1CCc2nn(-c3c(C)cccc3OCC(C)C)c(-c3ccc(NC(N)=O)cc3)c2C1 [Example 1.418] | 7.30 to 8.30 |
| Cc1cccc(OCC(C)C)c1-n1nc2c(c1-c1ccc(NC(N)=O)cc1)CN(Cc1ccccc1Cl)CC2 [Example 1.313] | 7.30 to 8.30 |
| Cc1cccc(C)c1-n1nc2c(c1-c1ccc(N)cc1)CN(c1ccccc1C(C)C)CC2 [Example 1.481] | 7.30 to 8.30 |
| CCc1cccc(C)c1-n1nc2c(c1-c1ccc(NC(N)=O)cc1)CN(c1cc(C(C)(C)C)ccc1C)CC2 [Example 1.380] | 7.30 to 8.30 |
| Cc1cccc(OCC(C)C)c1-n1nc2c(c1-c1ccc(NC(N)=O)cc1)CN(c1ccc(F)c(C(F)(F)F)c1)CC2 [Example 1.369] | 7.30 to 8.30 |
| Cc1cccc(OCC(C)C)c1-n1nc2c(c1-c1ccc(NC(N)=O)c(F)c1)CN(c1cc(F)cnc1F)CC2 [Example 1.251] | 7.30 to 8.30 |
| Cc1cccc(OCC(C)C)c1-n1nc2c(c1-c1ccc(NC(N)=O)cc1)CN(c1ncc(Cl)cc1Cl)CC2 [Example 1.258] | 7.30 to 8.30 |
| Cc1cccc(C)c1-n1nc2c(c1-c1cc(F)c(NC(N)=O)cc1F)CN(CC(C)(C)O)CC2 [Example 1.086] | < 6.30 |
| Cc1cccc(OCC(C)C)c1-n1nc2c(c1-c1ccc(NC(N)=O)cc1)CN(c1cc(C(C)(C)O)ccc1F)CC2 [Example 1.363] | 6.30 to 7.30 |
| Cc1cccc(CC(C)C)c1-n1nc2c(c1-c1ccc(NC(N)=O)cc1)CN(C(=O)OC(C)(C)C)CC2 [Example 1.415] | 6.30 to 7.30 |
| Cc1cccc(OCC(C)C)c1-n1nc2c(c1-c1ccc(NC(N)=O)cc1)CN(CC(C)(C)C#N)CC2 [Example 1.349] | 6.30 to 7.30 |
| Cc1cccc(C)c1-n1nc2c(c1-c1cc(F)c(NC(N)=O)cc1F)CN(c1ncc(Cl)cn1)CC2 [Example 1.155] | 7.30 to 8.30 |
| Cc1cccc(C)c1-n1nc2c(c1-c1cc(F)c(NC(=O)CN)cc1F)CN(c1ncc(Cl)cc1Cl)CC2 [Example 1.116] | < 6.30 |
| Cc1cccc(OCC(C)C)c1-n1nc2c(c1-c1ccc(NC(N)=O)cc1)CN(C1CCCC1C)CC2 (centres unmarked) [Example 1.397] | 6.30 to 7.30 |
| CC[C@@H](c1ccccc1)N1CCc2nn(-c3c(C)cccc3C)c(-c3ccc(NC(N)=O)cc3)c2C1 [Example 1.082] | 6.30 to 7.30 |
| Cc1cc(C)c(-n2nc3c(c2-c2ccc(NC(N)=O)cc2)CN(c2ncc(C(F)(F)F)cc2F)CC3)c(C)c1 [Example 1.287] | 7.30 to 8.30 |
| COc1cccc(C)c1-n1nc2c(c1-c1ccc(NC(N)=O)c(C)c1)CN(c1cc(C(C)(C)C)ccc1C)CC2 [Example 1.409] | 7.30 to 8.30 |
| COc1cccc(F)c1-n1nc2c(c1-c1ccc(NC(N)=O)cc1)CN(c1cc(C(C)(C)C)ccc1C)CC2 [Example 1.451] | 6.30 to 7.30 |
| CCCC(C)N1CCc2nn(-c3c(C)cccc3OCC(C)C)c(-c3ccc(NC(N)=O)c(F)c3)c2C1 (centres unmarked) [Example 1.247] | ≥ 8.30 |
| Cc1cccc(OCC(C)C)c1-n1nc2c(c1-c1ccc(NC(N)=O)cc1)CN(c1ccc(F)cc1C(F)(F)F)CC2 [Example 1.318] | ≥ 8.30 |
| CCc1cccc(CC)c1-n1nc2c(c1-c1cc(F)c(NC(N)=O)cc1F)CN(CC1(C)COC1)C(C)(C)C2 [Example 1.010] | 7.30 to 8.30 |
| CCc1cccc(CC)c1-n1nc2c(c1-c1cc(F)c(NC(N)=O)cc1F)CN(Cc1ccc(C(F)(F)F)cc1C(F)(F)F)[C@@H](C)C2 [Example 1.016] | ≥ 8.30 |
| CCc1cccc(CC)c1-n1nc2c(c1-c1cc(F)c(NC(N)=O)cc1F)CN(Cc1ccc(Cl)cc1Cl)C(C)(C)C2 [Example 1.024] | ≥ 8.30 |

| SMILES | pIC50 |
| --- | --- |
| CCc1cccc(CC)c1-n1nc2c(c1-c1ccc(NC(N)=O)c(F)c1)CN(C(C)CC)CC2 (centres unmarked) [Example 1.235] | 7.30 to 8.30 |
| CC(C)COc1ccccc1-n1nc2c(c1-c1cc(F)c(NC(N)=O)cc1F)CN(c1ncc(Cl)cc1Cl)CC2 [Example 1.189] | ≥ 8.30 |
| Cc1cccc(OCC(C)C)c1-n1nc2c(c1-c1cc(F)c(NC(N)=O)cc1F)CN(c1ncc(Cl)cc1F)CC2 [Example 1.173] | ≥ 8.30 |
| Cc1cccc(OCC(C)C)c1-n1nc2c(c1-c1ccc(NC(N)=O)cc1)CN(Cc1cccc(C(C)(C)C)c1)CC2 [Example 1.392] | 7.30 to 8.30 |
| Cc1ccc(C(C)C)cc1N1CCc2nn(-c3c(C)cccc3OCC(C)C)c(-c3ccc(NC(N)=O)cc3)c2C1 [Example 1.396] | 7.30 to 8.30 |
| Cc1cccc(OCC(C)C)c1-n1nc2c(c1-c1ccc(NC(N)=O)cc1)CN(c1cc(C(C)(C)C)ccn1)CC2 [Example 1.395] | 7.30 to 8.30 |
| Cc1ccc(C(C)(C)C)cc1N1CCc2nn(-c3c(C)cccc3CC(C)C)c(-c3ccc(N(C)C(N)=O)cc3)c2C1 [Example 1.400] | < 6.30 |
| Cc1cccc(OCC(C)C)c1-n1nc2c(c1-c1ccc(NC(N)=O)cc1)CN(C(=O)c1cccc(C(C)(C)C)c1)CC2 [Example 1.433] | 6.30 to 7.30 |
| Cc1cccc(OCC(C)C)c1-n1nc2c(c1-c1ccc(NC(N)=O)c(F)c1)CN(CC1CCOC1)CC2 (centres unmarked) [Example 1.248] | 6.30 to 7.30 |
| Cc1cccc(OCC(C)C)c1-n1nc2c(c1-c1ccc(NC(N)=O)cc1)CN(Cc1ccc(C(F)(F)F)cc1Cl)CC2 [Example 1.315] | ≥ 8.30 |
| Cc1cccc(C)c1-n1nc2c(c1-c1cc(F)c(NC(N)=O)cc1F)CN(c1ccc(C(C)(C)C)cc1Cl)CC2 [Example 1.098] | ≥ 8.30 |
| COc1cccc(F)c1CN1CCc2nn(-c3c(C)cccc3OCC(C)C)c(-c3ccc(NC(N)=O)cc3)c2C1 [Example 1.354] | 7.30 to 8.30 |
| Cc1cccc(OCC(C)C)c1-n1nc2c(c1-c1ccc(NC(N)=O)c(F)c1)CN(C(C)C)CC2 [Example 1.264] | 6.30 to 7.30 |
| C=C(C)c1cnc(N2CCc3nn(-c4c(C)cccc4OCC(C)C)c(-c4ccc(NC(N)=O)c(F)c4)c3C2)c(F)c1 [Example 1.220] | ≥ 8.30 |
| CCc1cccc(CC)c1-n1nc2c(c1-c1cc(F)c(NC(N)=O)cc1F)CN(Cc1cc(C(F)(F)F)ccc1C(F)(F)F)CC2 [Example 1.055] | ≥ 8.30 |
| Cc1cccc(OCC(C)C)c1-n1nc2c(c1-c1ccc(NC(N)=O)cc1)CN(c1cnc(C(F)(F)F)cn1)CC2 [Example 1.341] | 7.30 to 8.30 |
| CC(=O)Nc1cc(F)c(-c2c3c(nn2-c2c(C)cccc2C)CCN(c2ncc(Cl)cc2Cl)C3)cc1F [Example 1.126] | 6.30 to 7.30 |
| CCc1cccc(CC)c1-n1nc2c(c1-c1cc(F)c(NC(N)=O)cc1F)CN(CC1CCCC1)C(C)(C)C2 [Example 1.043] | ≥ 8.30 |
| CCc1cccc(CC)c1-n1nc2c(c1-c1cc(F)c(NC(N)=O)cc1F)CN(Cc1ccc(Cl)cc1Cl)CC2 [Example 1.073] | ≥ 8.30 |
| Cc1cccc(OCC(C)C)c1-n1nc2c(c1-c1ccc(NC(N)=O)cc1)CN(c1ccc(C(F)(F)F)cc1)CC2 [Example 1.407] | 7.30 to 8.30 |
| Cc1cccc(OCC(C)C)c1-n1nc2c(c1-c1ccc(NC(N)=O)cc1)CN(c1ccc(C(F)(F)F)cc1F)CC2 [Example 1.378] | 7.30 to 8.30 |
| Cc1cccc(OCC(C)C)c1-n1nc2c(c1-c1ccc(NC(N)=O)cc1)CN(c1ccccc1C(C)(C)C)CC2 [Example 1.454] | ≥ 8.30 |

Next, values leading:

| pIC50 | SMILES |
| --- | --- |
| ≥ 8.30 | CCc1cccc(CC)c1-n1nc2c(c1-c1cc(F)c(NC(N)=O)cc1F)CN(Cc1ccc(F)cc1C(F)(F)F)C(C)(C)C2 [Example 1.012] |
| ≥ 8.30 | Cc1cccc(OCC(C)C)c1-n1nc2c(c1-c1cc(F)c(NC(N)=O)cc1F)CN(c1ncccc1Cl)CC2 [Example 1.170] |
| ≥ 8.30 | Cc1cccc(OCC(C)C)c1-n1nc2c(c1-c1ccc(NC(N)=O)c(F)c1)CN(CC(C)C(F)(F)F)CC2 (centres unmarked) [Example 1.262] |
| ≥ 8.30 | CCc1cccc(CC)c1-n1nc2c(c1-c1cc(F)c(NC(N)=O)cc1F)CN(C(CC)c1ccccc1F)CC2 (centres unmarked) [Example 1.150] |
| ≥ 8.30 | CCc1cccc(CC)c1-n1nc2c(c1-c1cc(F)c(NC(N)=O)cc1F)CN(Cc1ccc(C(F)(F)F)cc1C)C(C)(C)C2 [Example 1.047] |
| ≥ 8.30 | Cc1cccc(OCC(C)C)c1-n1nc2c(c1-c1cc(F)c(NC(N)=O)cc1F)CN(c1ccc(Cl)cc1Cl)CC2 [Example 1.194] |
| ≥ 8.30 | CCc1cccc(CC)c1-n1nc2c(c1-c1cc(F)c(NC(N)=O)cc1F)CN(Cc1cccc(C(F)(F)F)c1)C(C)(C)C2 [Example 1.014] |
| ≥ 8.30 | CCc1cccc(CC)c1-n1nc2c(c1-c1cc(F)c(NC(N)=O)cc1F)CN(CC1CCOCC1)C(C)(C)C2 [Example 1.040] |
| ≥ 8.30 | CCc1cccc(CC)c1-n1nc2c(c1-c1cc(F)c(NC(N)=O)cc1F)CN(C(C)c1ccccc1F)CC2 (centres unmarked) [Example 1.161] |
| ≥ 8.30 | Cc1cccc(OCC(C)C)c1-n1nc2c(c1-c1ccc(NC(N)=O)c(F)c1)CN(C(C)C1CCCCC1)CC2 (centres unmarked) [Example 1.232] |
| ≥ 8.30 | Cc1cccc(OCC(C)C)c1-n1nc2c(c1-c1ccc(NC(N)=O)cc1)CN(Cc1ccccc1C(F)(F)F)CC2 [Example 1.361] |
| ≥ 8.30 | Cc1cccc(C)c1-n1nc2c(c1-c1cc(F)c(NC(N)=O)cc1F)CN(C(C)(C)c1ccccc1)CC2 [Example 1.146] |
| ≥ 8.30 | Cc1ccc(C(C)(C)C)cc1N1CCc2nn(-c3c(C)cccc3OC(C)C)c(-c3ccc(NC(N)=O)cc3)c2C1 [Example 1.444] |
| ≥ 8.30 | NC(=O)Nc1cc(F)c(-c2c3c(nn2-c2ccccc2OC(F)(F)F)CCN(c2ncc(Cl)cc2Cl)C3)cc1F [Example 1.167] |
| ≥ 8.30 | CCC(C)(C)N1CCc2nn(-c3c(C)cccc3OCC(C)C)c(-c3cc(F)c(NC(N)=O)cc3F)c2C1 [Example 1.214] |
| ≥ 8.30 | Cc1cccc(C)c1-n1nc2c(c1-c1cc(F)c(NC(N)=O)cc1F)CN(c1ncc(C(F)(F)F)cn1)CC2 [Example 1.154] |
| ≥ 8.30 | Cc1cccc(C)c1-n1nc2c(c1-c1cc(F)c(NC(N)=O)cc1F)CN(c1ncc(C3CC3)cc1Cl)CC2 [Example 1.124] |
| ≥ 8.30 | Cc1cc(NC(N)=O)c(F)cc1-c1c2c(nn1-c1c(C)cccc1C)CCN(c1ccc(Cl)cc1Cl)C2 [Example 1.118] |
| ≥ 8.30 | CCc1cccc(CC)c1-n1nc2c(c1-c1cc(F)c(NC(N)=O)cc1F)CN([C@@H](CC)c1ccccc1)CC2 [Example 1.084] |
| ≥ 8.30 | CC(C)(c1ccccc1)N1CCc2nn(-c3ccccc3OC(F)(F)F)c(-c3cc(F)c(NC(N)=O)cc3F)c2C1 [Example 1.138] |

From patent US11478460B2, “Diaryl substituted 6,5-fused ring compounds as C5aR inhibitors” (CHEMOCENTRYX, INC., priority 2017, dated 2022)
